In patent US20250320228A1, “PYRIDO[3,2-D]PYRIMIDINES AS HPK1 INHIBITORS” (Merck Patent GmbH, priority 2022, published 2025):
Structures can show the parent of a compound that is named as a salt. Where two headings read alike, the source gives them in different places.

Experiments:
[1] = target: full-length human HPK1 (MAP4K1) (Homo sapiens (Human), UniProt Q92918); test: HPK1 kinase assay (biochemical, ADP-Glo); conditions: read-out: HPK1 enzymatic IC50
Text: HPK1 kinase assay (Biochemical assay).
A recombinant fusion protein consisting of full-length human HPK1 (MAP4K1) with an N-terminal Glutatione S-transferase (GST) tag was produced in insect cells Sf21 using the baculovirus expression system. GST-HPK1 protein was purified from cell lysates by glutathione Sepharose affinity chromatography. The assay is run in three continuous steps: 1) the HPK1 enzymatic kinase reaction, 2) an ATP depletion, and 3) the ADP detection, the steps 2 and 3 are performed with ADP-Glo™ Kinase Assay kit from Promega (V9101). Test compounds were prepared by 10-point serial dilution in dimethyl sulfoxide (DMSO) and 100 nL of each dilution was spotted onto a 384-well Optiplate (Perkin Elmer and Cat #6007299) by Labcyte Echo. 5 μL kinase reaction buffer (0.02% Brij-35, 2 mM DTT, 50 mM HEPES pH 7.5, MgCl2 10 mM, BSA 0.01% and β-glycerophosphate 12.5 mM) containing HPK1 (3.2 nM) enzyme was transferred to each well and incubated for 15 minutes at room temperature at 60% humidity. The enzymatic reaction was started by adding 5 μl of Start-Mix (10 μM ATP and 3.235 μM MBP). After 120 minutes, the reaction was stopped by adding 5 μL of ADP-Glo reagent (Promega, V9101) and incubating for 40 min. in the dark at 23° C. To determine the level of ADP, 10 μl ADP-Glo Detection solution was added and incubated for 1 hour at 23° C. in the dark. The plate was transferred to a Perkin Elmer EnVision (2104 Multilabel Reader) for luminescence detection and percent inhibition activity and IC50 value were determined using Genedata Screener.

HPK1 pSLP76 (Ser376) = test: Cellular assay phospho-SLP-76 (Ser376); format: cell-based, human; conditions: read-out: HPK1 pSLP76 IC50
Experimental: Cellular Assay—Phospho-SLP-76 (Ser376).
Inhibition of HPK1 enzymatic activity in cells was determined by detection of SLP76 phosphorylation at Ser376 residue in lysate from Jurkat (human) and EL-4 (mouse) cells. Jurkat and EL-4 cells express both HPK1 and SLP76 naturally. All cells were cultured in RPMI 1640 media containing 10% heat inactivated fetal bovine serum (FBS) and 1× Penicillin-Streptomycin. In either Jurkat or El-4 assay, cells were pre-incubated with test compounds prior to T cell stimulation by respective αCD3/αCD28 Dynabeads™. For detection, plates were read on the Envision and percent inhibition and IC50 were determined by Smart fit in Genedata Analyzer.
For Jurkat cells: 35 μL cell suspension were dispensed at a density of 30,000 cells/well in 384-well plates containing HBSS (Gibco, 14025076)+0.1% BSA). 10-point logarithmic serial dilution of test compounds in DMSO were prepared by a Hamilton automated liquid handling robot and 35 nL was transferred into each well by an Echo liquid handler. After 60 min. pre-incubation, the cells were stimulated by adding 5 μL human T activator αCD3/αCD28 Dynabeads™ (Gibco, 11132D) at 1.2×107 beads/ml for 15 minutes at 37° C. Detection of Ser376 phosphorylation status was accomplished by first adding 10 μL of 5× AlphaLISA lysis buffer (Perkin Elmer, ALSU-PSLP-A500) to each well of the cell plate using a Multidrop Combi (5840300), followed by 20 minutes shaking. 10 μL cell lysate from each treatment were then transferred to a white 384-well plate (Corning 3572) and incubated with AlphaLISA acceptor beads for one hour (AlphaLISA SureFire Ultra p-SLP76 (Ser376), Perkin Elmer, ALSU-PSLP-A500), and donor beads for additional 2 hours at room temperature in the dark. […]

[2] = GST-HPK1 3.2 nM, 10 μM ATP, MBP substrate, ADP-Glo
[3] = SLP76 Ser376 phosphorylation after αCD3/αCD28 stimulation, Jurkat (human) or EL-4 (mouse) cells, table does not say which

full-length human HPK1 (MAP4K1), sequence (Q92918 whole entry): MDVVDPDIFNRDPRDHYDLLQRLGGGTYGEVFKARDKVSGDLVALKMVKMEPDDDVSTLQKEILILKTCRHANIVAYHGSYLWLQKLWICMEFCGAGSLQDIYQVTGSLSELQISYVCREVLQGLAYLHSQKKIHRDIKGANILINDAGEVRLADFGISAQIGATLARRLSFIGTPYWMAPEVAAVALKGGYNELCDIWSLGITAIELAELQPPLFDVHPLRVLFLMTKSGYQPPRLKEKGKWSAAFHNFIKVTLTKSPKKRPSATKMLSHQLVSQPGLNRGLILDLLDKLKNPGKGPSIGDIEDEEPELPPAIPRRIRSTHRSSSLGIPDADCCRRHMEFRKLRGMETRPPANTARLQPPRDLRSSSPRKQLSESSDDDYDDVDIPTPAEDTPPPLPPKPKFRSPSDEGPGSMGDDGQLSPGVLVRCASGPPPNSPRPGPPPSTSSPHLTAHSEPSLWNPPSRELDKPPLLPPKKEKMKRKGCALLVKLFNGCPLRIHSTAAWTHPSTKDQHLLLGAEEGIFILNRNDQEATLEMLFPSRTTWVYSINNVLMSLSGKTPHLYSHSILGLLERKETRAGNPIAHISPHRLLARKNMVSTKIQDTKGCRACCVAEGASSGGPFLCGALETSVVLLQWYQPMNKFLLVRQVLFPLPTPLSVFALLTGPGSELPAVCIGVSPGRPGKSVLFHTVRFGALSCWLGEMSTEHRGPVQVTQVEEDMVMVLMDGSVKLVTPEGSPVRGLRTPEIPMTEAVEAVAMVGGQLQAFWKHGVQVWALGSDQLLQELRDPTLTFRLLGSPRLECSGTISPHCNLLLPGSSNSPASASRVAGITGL

Row | Compound | IC50 [1, 2] [µM] | IC50 (HPK1 pSLP76 (Ser376); [3]) [µM] | IC50 [1] [µM] | IC50 (HPK1 pSLP76 (Ser376); Homo sapiens, Jurkat) [µM]
1 | NC(=O)c1cc(-c2ccc(CN3CCOCC3)cc2)nc2c(N[C@@]3(c4ccccc4)CCCNC3)ncnc12 [Example 18] | 0.1 to 1 | > 1 |  | 
2 | CC(C)(O)COc1ccc(-c2cc(C(N)=O)c3ncnc(N[C@@H]4CNC[C@@H](F)C4)c3n2)cc1 [Example 12, 4-(((3S,5S)-5-fluoropiperidin-3-yl)amino)-6-(4-(2-hydroxy-2-methylpropoxy)phenyl)pyrido[3,2-d]pyrimidine-8-carboxamide] | < 0.1 | < 0.5 |  | 
3 | Cn1cc(-c2cc(C(N)=O)c3ncnc(N[C@@H]4CNC[C@@H](F)C4)c3n2)cc1C#N [Example 7, 6-(5-cyano-1-methyl-1H-pyrrol-3-yl)-4-{[(3S,5S)-5-fluoropiperidin-3-yl]amino}pyrido[3,2-d]pyrimidine-8-carboxamide] | < 0.1 | < 0.5 |  | 
4 | C[C@@H](c1ccc(-c2cc(C(N)=O)c3ncnc(N[C@H]4CCCNC4)c3n2)cc1)N1CCOCC1 (single isomer, unassigned) [Example 53] | < 0.1 | 0.5 to 1 |  | 
5 | NC(=O)c1cc(-c2ccc(CN3C4CCC3COC4)cc2)nc2c(N[C@H]3CCCNC3)ncnc12 [Example 66, 6-(4-[3-oxa-8-azabicyclo [3.2.1]octan-8-ylmethyl]phenyl)-4-[(3S)-piperidin-3-ylamino]pyrido[3,2-d]pyrimidine-8-carboxamide] | < 0.1 | < 0.5 |  | 
6 | COCCOc1ccc(-c2cc(C(N)=O)c3ncnc(N[C@H]4CCCNC4)c3n2)c(C#N)c1 [Example 46, (S)-6-(2-cyano-4-(2-methoxyethoxy)phenyl)-4-(piperidin-3-ylamino)pyrido[3,2-d]pyrimidine-8-carboxamide] | < 0.1 | > 1 |  | 
7 | NC(=O)c1cc(-c2cnn(CC(F)F)c2)nc2c(N[C@H]3CCCNC3)ncnc12 [Example 81, 6-[1-(2,2-difluoroethyl)-1H-pyrazol-4-yl]-4-{[(3S)-piperidin-3-yl]amino}pyrido[3,2-d]pyrimidine-8-carboxamide] | < 0.1 | > 1 |  | 
8 | Cn1cc(-c2cc(C(N)=O)c3ncnc(N[C@H]4CCCNC4)c3n2)cc1C#N [Example 83, 6-(5-cyano-1-methyl-1H-pyrrol-3-yl)-4-{[(3S)-piperidin-3-yl]amino}pyrido[3,2-d]pyrimidine-8-carboxamide] | < 0.1 | < 0.5 |  | 
9 | NC(=O)c1cc(-c2ccc(OCC3(O)CCCC3)cc2)nc2c(N[C@H]3CCCNC3)ncnc12 [Example 41, (S)-6-(4-((1-hydroxycyclopentyl)methoxy)phenyl)-4-(piperidin-3-ylamino)pyrido[3,2-d]pyrimidine-8-carboxamide] | < 0.1 | < 0.5 |  | 
10 | NC(=O)c1cc(-c2ccc(O[C@H]3CN4CCC3CC4)cc2)nc2c(N[C@H]3CCCNC3)ncnc12 [Example 50, 4-(((S)-piperidin-3-yl)amino)-6-(4-(((R)-quinuclidin-3-yl)oxy)phenyl)pyrido[3,2-d]pyrimidine-8-carboxamide] |  |  | < 0.1 | > 1
11 | NC(=O)c1cc(-c2ccc(CN3CCO[C@H](C(F)(F)F)C3)cc2)nc2c(N[C@H]3CCCNC3)ncnc12 [Example 57, 4-[(3S)-piperidin-3-ylamino]-6-(4-[[(2S)-2(trifluoromethyl)morpholin-4-yl]methyl]phenyl) pyrido [3,2-d]pyrimidine-8-carboxamide] | < 0.1 | < 0.5 |  | 
12 | C[C@@H]1CN(Cc2ccc(-c3cc(C(N)=O)c4ncnc(N[C@H]5CCCNC5)c4n3)cc2)CCO1 [Example 69, 6-(4-[[(2R)-2-methylmorpholin-4-yl]methyl]phenyl)-4-[(3S)-piperidin-3-ylamino]pyrido[3,2-d]pyrimidine-8-carboxamide dihydrochloride] | < 0.1 | > 1 |  | 
13 | Cc1nn(C)cc1-c1cc(C(N)=O)c2ncnc(N[C@H]3CCCNC3)c2n1 [Example 79, 6-(1,3-dimethyl-1H-pyrazol-4-yl)-4-{[(3S)-piperidin-3-yl]amino}pyrido[3,2-d]pyrimidine-8-carboxamide] | < 0.1 | > 1 |  | 
14 | C[C@H]1CN(Cc2ccc(-c3cc(C(N)=O)c4ncnc(N[C@H]5CCCNC5)c4n3)cc2)CCO1 [Example 27, 6-(4-[[(2S)-2-methylmorpholin-4-yl]methyl]phenyl)-4-[(3S)-piperidin-3-ylamino]pyrido [3,2-d]pyrimidine-8 carboxamide dihydrochloride] | < 0.1 | < 0.5 |  | 
15 | NC(=O)c1cc(-c2ccc(CN3C4COCC3C4)cc2)nc2c(N[C@H]3CCCNC3)ncnc12 [Example 67, 6-(4-[3-oxa-6-azabicyclo [3.1.1]heptan-6-ylmethyl]phenyl)-4-[(3S)-piperidin-3-ylamino]pyrido[3,2-d]pyrimidine-8-carboxamide] | < 0.1 | > 1 |  | 
16 | CCn1ncc(-c2cc(C(N)=O)c3ncnc(N[C@@H]4CNC[C@@H](F)C4)c3n2)c1C [Example 8, 6-(1-ethyl-5-methyl-1H-pyrazol-4-yl)-4-(((3S,5S)-5-fluoropiperidin-3-yl)amino)pyrido[3,2-d]pyrimidine-8-carboxamide] | < 0.1 | < 0.5 |  | 
17 | NC(=O)c1cc(-c2cc(F)c(OCC3(O)CCOCC3)c(F)c2)nc2c(N[C@H]3CCCNC3)ncnc12 [Example 43, (S)-6-(3,5-difluoro-4-((4-hydroxytetrahydro-2H-pyran-4-yl)methoxy)phenyl)-4-(piperidin-3-ylamino)pyrido[3,2-d]pyrimidine-8-carboxamide] | < 0.1 | < 0.5 |  | 
18 | Cc1nn(C)cc1-c1cc(C(N)=O)c2ncnc(N[C@@H]3CNC[C@@H](F)C3)c2n1 [Example 3, 6-(1,3-dimethyl-1H-pyrazol-4-yl)-4-(((3S,5S)-5-fluoropiperidin-3-yl)amino)pyrido[3,2-d]pyrimidine-8-carboxamide] | < 0.1 | < 0.5 |  | 
19 | CC(C)(O)C(F)(F)Oc1ccc(-c2cc(C(N)=O)c3ncnc(N[C@H]4CCCNC4)c3n2)cc1 [Example 47, (S)-6-(4-(1,1-difluoro-2-hydroxy-2-methylpropoxy)phenyl)-4-(piperidin-3-ylamino)pyrido[3,2-d]pyrimidine-8-carboxamide] | < 0.1 | 0.5 to 1 |  | 
20 | NC(=O)c1cc(-c2ccc(CC3(F)CCOCC3)cc2)nc2c(N[C@H]3CCCNC3)ncnc12 [Example 44, (S)-6-(4-((4-fluorotetrahydro-2H-pyran-4-yl)methyl)phenyl)-4-(piperidin-3-ylamino)pyrido[3,2-d]pyrimidine-8-carboxamide] | < 0.1 | < 0.5 |  | 
21 | NC(=O)c1cc(-c2ccc(C3(O)COC3)cc2)nc2c(N[C@H]3CCCNC3)ncnc12 [Example 82, 6-[4-(3-hydroxyoxetan-3-yl)phenyl]-4-{[(3S)-piperidin-3-yl]amino}pyrido[3,2-d]pyrimidine-8-carboxamide] | < 0.1 | 0.5 to 1 |  | 
22 | NC(=O)c1cc(-c2cc(F)c(OCC3(O)CCC3)c(F)c2)nc2c(N[C@@H]3CNC[C@@H](F)C3)ncnc12 [Example 33, 6-(3,5-difluoro-4-((1-hydroxycyclobutyl)methoxy)phenyl)-4-(((3S,5S)-5-fluoropiperidin-3-yl)amino)pyrido[3,2-d]pyrimidine-8-carboxamide] | < 0.1 | < 0.5 |  | 
23 | CN1CCN(c2ccc(-c3cc(C(N)=O)c4ncnc(N[C@H]5CCCNC5)c4n3)cn2)CC1 [Example 59, 6-[6-(4-methylpiperazin-1-yl)pyridin-3-yl]-4-[(3S)-piperidin-3-ylamino]pyrido[3,2-d]pyrimidine-8-carboxamide] | < 0.1 | < 0.5 |  | 
